Assay: THC in blood, eccrine sweat, apocrine sweat and urine after smoking a THC containing product
Assay type: in vivo, human
Method: Samples of apocrine and eccrine sweat were collected prior to oral consumption of a THC containing product. No THC was detected in either sample. The test individual then orally consumed (smoked) a quantity of a THC containing product. Small quantities (0.5 cc) of apocrine and eccrine sweat was separately collected over a period of 30 minutes under ambient conditions to induce sweating. When the collected samples were tested using standard laboratory tests for THC metabolites […].

SMILES: CCCCCc1cc(O)c2c(c1)OC(C)(C)[C@@H]1CCC(C)=C[C@@H]21 [Delta 9 THC, delta nine tetrahydrocannibinol]
- Delta 9 THC concentration in apocrine sweat (apocrine sweat (0.5 cc) collected over 30 minutes after smoking a THC containing product): 107 nanograms/ml
- Delta 9 THC concentration in blood (blood, test individual after smoking a THC containing product, standard laboratory test for THC): 21 nanograms/ml
- Delta 9 THC concentration in eccrine sweat (eccrine sweat (0.5 cc) collected over 30 minutes after smoking a THC containing product): 4 nanograms/ml
- Quantity of THC in apocrine sweat relative to blood (ratio apocrine sweat / blood): 5.1 times
- Quantity of THC in apocrine sweat relative to eccrine sweat (ratio apocrine sweat / eccrine sweat): 26.75 times
- Delta 9 THC concentration in urine (urine, after smoking a THC containing product): undetect-

— patent US20030199743A1, “Screening test and procedure using apocrine sweat” (priority 2000, published 2003)
